# Measured values: patent publication US12391701B2, “Chromene-based compounds, methods and uses thereof” (University of Minho, priority 2019, dated 2025)
# Tests used:
# [1] = tested on: TNBC cell line MDA-MB-231; assay: Orthotopic breast cancer xenograft in NSG mice; format: in vivo
# Method: In an embodiment, the in vivo therapeutic efficacy of compound MC408 was analysed using the mouse model. […] MDA-MB-231 cells were injected into the mammary fat pad of NSG mice (n=6 or 7 per group). Treatment was administered 3 days post-implantation for one week. NT=Vehicle; Dose 1=3 mg/kg; Dose 2=10 mg/kg; Dose 3=50 mg/kg. *, p<0.05; **, p<0.01; ****, p<0.0001 (compared to NT group; two-way ANOVA post-hoc Tukey's test or unpaired t-test with Welch's correction).
# In an embodiment, NSG (NOD Scid Gamma) female mice (3-6 months) were injected with a mixture of 0.6×10^6 MDA-MB-231 breast cancer cells and matrigel (ratio 1:1) in the mammary fat pad. Mice were randomly assigned to treatment groups (at least 6 mice/group), which was started 3 days post-implantation using 3 independent doses of compound MC408 (dose 1=3 mg/kg, dose 2=10 mg/kg, and dose 3=50 mg/kg) or vehicle (PBS 1× and Matrigel, ratio 1:1), and was administered daily for 7 days. Mice were maintained under standard laboratory conditions. Animal tumor size (calculated by measuring the two largest sides and applying the formula: v=3.14×L1×L1×L2/6; being L1 the largest side, and L2 the other one) was measured and recorded regularly. At day 47 post-implantation, animals were sacrificed and tumors were excised. All animal procedures were conducted in accordance with the guidelines for the care and use of laboratory animals (European Directive 2010/63/EU).
# 786-O cells [2] = assay: Annexin V/PI flow cytometry, 786-O; format: cell-based; conditions: IC50 concentration; 24 h
# From the text: (§1) In an embodiment, to understand the mechanisms leading to cell death, cells were studied for the induction of apoptosis by flow cytometry. […] Externalization of phosphatidylserine occurs during the early apoptotic events. While annexin V binds to phosphatidylserine, PI stains only cells that have lost their membrane integrity, an experimental procedure which allows the discrimination between viable cells, early apoptotic cells, late apoptotic/necrotic cells or necrotic cells.
# (§2) In an embodiment, MCF-7, Hs578t and 786-O cells were seeded in 6-well culture plates and allowed to adhere over 18-20 hours in a complete DMEM (for MCF-7 and Hs578t cells) and complete RPMI (for 786-O cells) medium to detect apoptosis via flow cytometry analysis. […] Triplicates were performed in each experiment. Floating and adherent cells were collected and combined by centrifugation. Elimination of the supernatant was followed by addition of 1 mL of Binding Buffer. 8 μL FITC annexin V (556419, BD Pharmingen) and 30 μl of PI (50 μg/mL, P1304MP, Invitrogen) were added to the cell pellet. Samples were incubated in the dark for 15 min at room temperature. A further 200 μL of Binding Buffer was added to each sample. PI signal was measured using FACS LSRII flow cytometer (BD Biosciences®) with 488 nm excitation laser. […] The percentage of cells in each phase was analysed using the FlowJo 7.6 (Tree Star®) software. […]
# [3] = tested on: CAM (chicken chorioallantoic membrane) blood vessels; assay: CAM assay, angiogenesis; format: in vivo; conditions: 2× the IC50 value; after 4 days of treatment
# Method: In an embodiment, the in vivo capacity of the compounds to inhibit angiogenesis was analysed using the CAM model. To assess the effect on angiogenesis, sterilized 5-mm diameter filter disks were impregnated in culture medium with fixed concentration (2× the IC50 value) of the chromenes MC408 and MC421 or 0.5% DMSO (control group) and were placed onto the vascular area of CAM.
# In an embodiment, CAM assay was performed. Fertilized chicken eggs were incubated at 37° C. and at day 3 of development, a window was opened into the eggshell after puncturing the air chamber. The window was sealed with BTK tape and returned to the incubator. On day 9 of development, Hs578t cells (2×10^6 cells) or 786-O cells (3.5×10^6 cells) with Matrigel (10 μL) were placed on CAM, allowing tumor formation and the eggs were tapped and returned to the incubator. At day 14 of development, the tumors were photographed. The treated groups received 20 μL of 2×IC50 concentration of MC408 or MC421 in complete DMEM (for Hs578t cells) or complete RPMI (for 786-O cells) media and the controls received 20 μL of 0.5% DMSO in complete DMEM or RPMI; these were added over the formed tumor. After 72 hours of treatment (day 17 of development), the tumors were photographed again in ovo. Sacrifice of chicken embryos was performed at −80° C. for 10 minutes and the CAM alone was fixed with paraformaldehyde at 4% before being photographed again ex ovo.
# MCF-7 cells = assay: Annexin V/PI flow cytometry, MCF-7; format: cell-based, human; conditions: IC50 concentration; 24 h
# From the text: as §1, §2
# 786-O cells [4] = assay: BrdU proliferation assay, 786-O; format: cell-based; conditions: 48 hours; IC50 and ½IC50
# Method: In an embodiment, the effect of preferred chromene-based compounds on cell proliferation was evaluated. […] Results are presented as mean±SD at least three independent experiments. *p<0.05, **p<0.01, ***p<0.0005, ****p<0.0001 compared to control (0.5% DMSO). The significance of the difference between different groups was determined with Student t test. […] Exceptions are observed for compounds MC409, MC410 and MC368.
# In an embodiment, proliferation assay was performed. 786-O cells were plated in 96-well plates at a density of 7000 cells/[…], and allowed to incubate overnight at 37° C. in a 5% CO2 humidified atmosphere. […] After incubation, cells were labelled by addition of 10 μl/well BrdU labelling solution (final concentration: 40 μM BrdU). The cells were then re-incubated for 16 h to allow BrdU to incorporate into the proliferating cell DNA, replacing thymidine. […] The immune complexes were detected by the addition of substrate solution (100 μl/well) and the plate was incubated at room temperature until color development was satisfactory for photometric detection (5-10 min). […] The reaction product was quantified by measuring absorbance at 450 nm (reference wavelength: 690 nm) in microplate reader (Tecan Infinite M200). […] The results of at least three independent experiments (in quadruplicate) were evaluated using GraphPad Prism 5 software.
# [5] = 3, 10, 50 mg/kg daily for 7 days, dose-dependent
Structure (SMILES),"tumor volume [1, 5]","tumor weight [1, 5]",reduction of tumor volume comparing to the vehicle group ([1]; dose of 50 mg/kg),reduction of tumor weight comparing to the vehicle group ([1]; dose of 50 mg/kg),"weight loss and other side effects ([1]; tested treatment regimen, whole experiment)",induction of cell death by apoptosis (annexin V/PI) (786-O cells [2]),formation of novel blood vessels [3],pre-existing blood vessels [3],induction of cell death by apoptosis (annexin V/PI) (MCF-7 cells),effect on cell proliferation (BrdU incorporation) (786-O cells [4])
"COc1cccc2c1Oc1nc(-c3ccc(Br)cc3)[nH]c1C2 [MC408, 2-(4-bromophenyl)-5-methoxy-3,9-dihydrochromeno[2,3-d]imidazoles]",significantly decreased,significantly decreased,more than 40%,more than 40%,no weight loss nor other side effects,inducing cell death by apoptosis (early apoptosis),decreased,disruption,inducing cell death by apoptosis (early apoptosis),
"COc1cccc2c1Oc1nc(-c3ccc(F)cc3)[nH]c1C2 [MC409, 2-(4-fluorophenyl)-5-methoxy-3,9-dihydrochromeno[2,3-d]imidazoles]",,,,,,,,,,Exceptions
"COc1cccc2c1Oc1nc(-c3cc(F)cc(F)c3O)[nH]c1C2 [MC410, 2,4-difluoro-6-(5-methoxy-3,9-dihydrochromeno[2,3-d]imidazol-2-yl)phenol]",,,,,,,,,,Exceptions
"COc1cccc2c1Oc1nc(-c3ccc(Br)cc3)[nH]c1C2C1c2cccc(OC)c2Oc2nc(-c3ccc(Br)cc3)[nH]c21 (stereo not drawn) [MC421, 2,2′-bis(4-bromophenyl)-5,5′-dimethoxy-1,1,9,9′-tetrahydro-9,9′-bichromeno[2,3-]imidazoles]",,,,,,inducing cell death by apoptosis (early apoptosis),decreased,disruption,inducing cell death by apoptosis (early apoptosis),
